Where two headings read alike, the source gives them in different places.
How the values were obtained:
Format in all cases: in vivo
[1] = system: lambsquarters (Chenopodium album); experiment: General postemergence herbicidal activity, lambsquarters; settings: post-emergence, 336 h, read-out: CHEAL % Visual Injury; for pest or weed control at 140 g/ha: 140 g ai/ha; for pest or weed control at 280 g/ha: 280 g ai/ha; for pest or weed control at 35 g/ha: 35 g ai/ha
Experimental: (§1) Seeds or nutlets of the desired test plant species were planted in Sun Gro MetroMix® 360 planting mixture, which typically has a pH of 6.0 to 6.8 and an organic matter content of about 30 percent, in plastic pots with a surface area of 64 square centimeters (cm^2). When required to ensure good germination and healthy plants, a fungicide treatment and/or other chemical or physical treatment was applied. The plants were grown for 7-21 days (d) in a greenhouse with an approximate 15-hour (h) photoperiod which was maintained at about 23-29° C. during the day and 22-28° C. during the night. Nutrients and water were added on a regular basis and supplemental lighting was provided with overhead metal halide 1000-Watt lamps as necessary. The plants were employed for testing when they reached the first or second true leaf stage.
(§2) A weighed amount, determined by the highest rate to be tested, of each test compound was dissolved in 4 mL of a 97:3 volume per volume (v/v) mixture of acetone and dimethyl sulfoxide (DMSO) to obtain concentrated stock solutions. […] The concentrated stock solutions obtained were diluted with 20 mL of an aqueous mixture containing acetone, water, isopropyl alcohol, DMSO, Atplus 411F crop oil concentrate, and Triton X-155 surfactant in a 48.5:39:10:1.5:1.0:0.02 v/v ratio to obtain spray solutions containing the highest application rates. Additional application rates were obtained by serial dilution of 12 mL of the high rate solution into a solution containing 2 mL of 97:3 v/v mixture of acetone and DMSO and 10 mL of an aqueous mixture containing acetone, water, isopropyl alcohol, DMSO, Atplus 411F crop oil concentrate, and Triton X-155 surfactant in a 48.5:39:10:1.5:1.0:0.02 v/v ratio to obtain ½×, ¼×, ⅛× and 1/16× rates of the high rate. Compound requirements are based upon a 12 mL application volume at a rate of 187 liters per hectare (L/ha). Formulated compounds were applied to the plant material with an overhead Mandel track sprayer equipped with 8002E nozzles calibrated to deliver 187 L/ha over an application area of 0.503 square meters (m^2) at a spray height of 18 inches (43 cm) above the average plant canopy height. Control plants were sprayed in the same manner with the solvent blank.
(§3) The treated plants and control plants were placed in a greenhouse as described above and watered by sub-irrigation to prevent wash-off of the test compounds. After 14 d, the condition of the test plants as compared with that of the untreated plants was determined visually and scored on a scale of 0 to 100 percent where 0 corresponds to no injury and 100 corresponds to complete kill.

corn (Zea mays) = experiment: General postemergence herbicidal activity, corn; settings: post-emergence, 336 h, read-out: ZEAMX % Visual Injury; for plant injury at 140 g/ha: 140 g ai/ha; for plant injury at 280 g/ha: 280 g ai/ha; for plant injury at 35 g/ha: 35 g ai/ha
Experimental: as §1, §2, §3

[2] = system: velvetleaf (Abutilon theophrasti); experiment: General postemergence herbicidal activity, velvetleaf; settings: post-emergence, 336 h, read-out: ABUTH % Visual Injury; for pest or weed control at 140 g/ha: 140 g ai/ha; for pest or weed control at 280 g/ha: 280 g ai/ha; for pest or weed control at 35 g/ha: 35 g ai/ha
Experimental: as §1, §2, §3

[3] = system: wild buckwheat (Polygonum convululus); experiment: General postemergence herbicidal activity, wild buckwheat; settings: post-emergence, 336 h, read-out: POLCO % Visual Injury; for pest or weed control at 140 g/ha: 140 g ai/ha; for pest or weed control at 280 g/ha: 280 g ai/ha; for pest or weed control at 35 g/ha: 35 g ai/ha
Experimental: as §1, §2, §3

[4] = postemergence, after 14 d, 0 = no injury, 100 = complete kill
[5] = 70 g ai/ha, postemergence, after 14 d, 0 = no injury, 100 = complete kill
[6] = 17.5 g ai/ha, postemergence, after 14 d, 0 = no injury, 100 = complete kill

**Q.** How did the pest or weed control at 140 g/ha [1, 4] turn out when `COc1c(Cl)ccc(-c2cc(N)c(Cl)c(C(=O)N3CCCO3)n2)c1F` [Compound 40, (4-Amino-3-chloro-6-(4-chloro-2-fluoro-3-methoxyphenyl)pyridin-2-yl)(isoxazolidin-2-yl)methanone] was run?
**A.** 100%

**Q.** What about the plant injury at 140 g/ha (corn (Zea mays); [4]) of the same compound?
**A.** 20%

**Q.** What about the pest or weed control at 140 g/ha [2, 4] of the same compound?
**A.** 95%

**Q.** And the pest or weed control at 140 g/ha [3, 4]?
**A.** 100%

**Q.** For `COc1c(Cl)ccc(-c2cc(N)c(Cl)c(C(=O)NOCc3ccco3)n2)c1F` [Compound 42, 4-Amino-3-chloro-6-(4-chloro-2-fluoro-3-methoxyphenyl)-N-(furan-2-yl-methoxy)picolinamide], which pest or weed control at 70 g/ha [1, 5] is on record?
**A.** 100%

**Q.** And the plant injury at 70 g/ha (corn (Zea mays); [5])?
**A.** 15%

**Q.** And the pest or weed control at 70 g/ha [2, 5]?
**A.** 100%

**Q.** And the pest or weed control at 70 g/ha [3, 5]?
**A.** 100%

**Q.** How did the pest or weed control at 140 g/ha [1, 4] turn out when `COc1c(Cl)ccc(-c2cc(N)c(Cl)c(C(=O)NOCc3ccoc3)n2)c1F` [Compound 43, 4-Amino-3-chloro-6-(4-chloro-2-fluoro-3-methoxyphenyl)-N-(furan-3-yl-methoxy)picolinamide] was run?
**A.** 100%

**Q.** What about the plant injury at 140 g/ha (corn (Zea mays); [4]) of the same compound?
**A.** 30%

**Q.** What about the pest or weed control at 140 g/ha [2, 4] of the same compound?
**A.** 95%

**Q.** What about the pest or weed control at 140 g/ha [3, 4] of the same compound?
**A.** 100%

**Q.** Which results are given for `COc1c(Cl)ccc(-c2cc(N)c(Cl)c(C(=O)NOCC3=CCCCC3)n2)c1F` [Compound 44, 4-Amino-3-chloro-6-(4-chloro-2-fluoro-3-methoxyphenyl)-N-(cyclohexenyl-methoxy)picolinamide]?
**A.** pest or weed control at 140 g/ha [1, 4]: 98%; plant injury at 140 g/ha (corn (Zea mays); [4]): 5%; pest or weed control at 140 g/ha [2, 4]: 98%; pest or weed control at 140 g/ha [3, 4]: 100%

**Q.** With `CC/C=C/CONC(=O)c1nc(-c2ccc(Cl)c(OC)c2F)cc(N)c1Cl` [Compound 45, (E)-4-Amino-3-chloro-6-(4-chloro-2-fluoro-3-methoxyphenyl)-N-(2-pentenyl-oxy)picolinamide] as the compound, how does the pest or weed control at 140 g/ha [1, 4] read?
**A.** 100%

**Q.** What about the plant injury at 140 g/ha (corn (Zea mays); [4]) of the same compound?
**A.** 30%

**Q.** And the pest or weed control at 140 g/ha [2, 4]?
**A.** 100%

**Q.** And the pest or weed control at 140 g/ha [3, 4]?
**A.** 100%

**Q.** For `CCCCONC(=O)c1nc(-c2ccc(Cl)c(OC)c2F)cc(N)c1Cl` [Compound 46, 4-Amino-N-butoxy-3-chloro-6-(4-chloro-2-fluoro-3-methoxyphenyl)picolinamide], which pest or weed control at 70 g/ha [1, 5] is on record?
**A.** 100%

**Q.** What about the plant injury at 70 g/ha (corn (Zea mays); [5]) of the same compound?
**A.** 25%

**Q.** And the pest or weed control at 70 g/ha [2, 5]?
**A.** 100%

**Q.** And the pest or weed control at 70 g/ha [3, 5]?
**A.** 100%

**Q.** How did the pest or weed control at 280 g/ha [1, 4] turn out when `COCCONC(=O)c1nc(-c2ccc(Cl)c(OC)c2F)cc(N)c1Cl` [Compound 49, 4-Amino-3-chloro-6-(4-chloro-2-fluoro-3-methoxyphenyl)-N-(2-methoxy-ethoxy)picolinamide] was run?
**A.** 100%

**Q.** And the plant injury at 280 g/ha (corn (Zea mays); [4])?
**A.** 0%

**Q.** What about the pest or weed control at 280 g/ha [2, 4] of the same compound?
**A.** 100%

**Q.** What about the pest or weed control at 280 g/ha [3, 4] of the same compound?
**A.** 100%

**Q.** How did the pest or weed control at 280 g/ha [1, 4] turn out when `COc1c(Cl)ccc(-c2cc(N)c(Cl)c(C(=O)NOCCC#N)n2)c1F` [Compound 50, 4-Amino-3-chloro-6-(4-chloro-2-fluoro-3-methoxyphenyl)-N-(2-cyanoethoxy)picolinamide] was run?
**A.** 100%

**Q.** And the plant injury at 280 g/ha (corn (Zea mays); [4])?
**A.** 10%

**Q.** What about the pest or weed control at 280 g/ha [2, 4] of the same compound?
**A.** 100%

**Q.** And the pest or weed control at 280 g/ha [3, 4]?
**A.** 90%

**Q.** With `COCCOCONC(=O)c1nc(-c2ccc(Cl)c(OC)c2F)cc(N)c1Cl` [Compound 51, 4-Amino-3-chloro-6-(4-chloro-2-fluoro-3-methoxyphenyl)-N-((2-methoxyethoxy)-methoxy)picolinamide] as the compound, how does the pest or weed control at 35 g/ha [1, 4] read?
**A.** 100%

**Q.** And the plant injury at 35 g/ha (corn (Zea mays); [4])?
**A.** 35%

**Q.** What about the pest or weed control at 35 g/ha [2, 4] of the same compound?
**A.** 100%

**Q.** What about the pest or weed control at 35 g/ha [3, 4] of the same compound?
**A.** 100%

**Q.** How did the pest or weed control at 35 g/ha [1, 4] turn out when `COc1c(Cl)ccc(-c2cc(N)c(Cl)c(C(=O)N3CC=CCO3)n2)c1F` [Compound 52, (4-Amino-3-chloro-6-(4-chloro-2-fluoro-3-methoxyphenyl)pyridin-2-yl)(3,6-dihydro-2H-1,2-oxazin-2-yl)methanone] was run?
**A.** 90%

**Q.** And the plant injury at 35 g/ha (corn (Zea mays); [4])?
**A.** 20%

**Q.** And the pest or weed control at 35 g/ha [2, 4]?
**A.** 100%

**Q.** What about the pest or weed control at 35 g/ha [3, 4] of the same compound?
**A.** 100%

**Q.** `COc1c(Cl)ccc(-c2cc(N)c(Cl)c(C(=O)NO)n2)c1F` [Compound 57, 4-amino-3-chloro-6-(4-chloro-2-fluoro-3-methoxyphenyl)-N-hydroxypicolinamide] was tested. Which pest or weed control at 17.5 g/ha [1, 6] did it give?
**A.** 95%

**Q.** What about the plant injury at 17.5 g/ha (corn (Zea mays); [6]) of the same compound?
**A.** 0%

**Q.** What about the pest or weed control at 17.5 g/ha [2, 6] of the same compound?
**A.** 90%

**Q.** And the pest or weed control at 17.5 g/ha [3, 6]?
**A.** 95%

**Q.** What does the source list for `COc1c(N)nc(-c2ccc(Cl)c(F)c2F)nc1C(=O)NO` [Compound 58, 6-Amino-2-(4-chloro-2,3-difluorophenyl)-N-hydroxy-5-methoxypyrimidine-4-carboxamide]?
**A.** pest or weed control at 280 g/ha [1, 4]: 100%; plant injury at 280 g/ha (corn (Zea mays); [4]): 0%; pest or weed control at 280 g/ha [2, 4]: 90%; pest or weed control at 280 g/ha [3, 4]: 100%

**Q.** For `C=CCONC(=O)c1nc(-c2ccc(Cl)c(OC)c2F)cc(N)c1Cl` [Compound 59, sodium 2-propenyloxy(4-amino-3-chloro-6-(4-chloro-2-fluoro-3-methoxyphenyl)picolinoyl)amide], which pest or weed control at 70 g/ha [1] is on record?
**A.** 95%

**Q.** What about the plant injury at 70 g/ha (corn (Zea mays)) of the same compound?
**A.** 10%

**Q.** And the pest or weed control at 70 g/ha [2]?
**A.** 100%

**Q.** What about the pest or weed control at 70 g/ha [3] of the same compound?
**A.** 85%

Reference: patent US20130324412A1, “N-ALKOXYAMIDES OF 6-(SUBSTITUTED PHENYL)-4-AMINOPICOLINATES AND 2-(SUBSTITUTED PHENYL)-6-AMINO-4-PYRIMIDINECARBOXYLATES AND THEIR USE AS SELECTIVE HERBICIDES FOR CROPS” (DOW AGROSCIENCES LLC, priority 2009, published 2013)
